# Assay results from US12714719B2, “Cannabinoids, pharmaceutical compositions comprising same and uses thereof” (TECHNION RESEARCH AND DEVELOPMENT FOUNDATION LIMITED, priority 2020, dated 2026).
# Experiments:
# DBTRG-05MG cells = test: Hoechst / Propidium Iodide cell death imaging; type: cell-based; conditions: 24 hours; for % of cell death, effect of adding the cannabinoid to CBD: DBTRG-05MG, purified cannabinoids at content of extract 2, 4 and 8 μg/ml, compared with CBD alone
# Procedure: The effects of cannabinoids on the survival of tolerant glioblastoma (GBM) cancer cells harboring a NOTCH 4 mutation were examined.
# DBTRG-05MG cells were cultured in 96 well plate (1×10^5 cells/well) until confluency and treated with DMSO as control, pure cannabidiol (CBD), and extracts CAN12 and CAN26 with increasing concentrations from 1 to 4 μg/ml (FIG. 2A).
# In another experiment, cells were cultured in 96 well plate (1×10^5 cells/well) until confluency and treated for 24 hours with three molecules (CBD, CBDV and CF1) as compared to the whole extract. The treatments were performed using three extract concentrations: 2, 4 and 8 μg/ml (FIG. 2B). After 24 hours, cells were stained with Hoechst and Propidium Iodide (PI) and imaged by IXM micro system (Molecular Devices) in 10× magnification. Live and dead cells were analyzed by MetaXpress® software (Molecular Devices) and presented as percentages of cell death from total cells. The purified phytocannabinoids were diluted to contain the same content as in the extract, then were provided according to the extract concentrations.
# Molt-4 cells = test: AlamarBlue (resazurin) viability assay; type: cell-based
# Procedure: Dose-dependent AlamarBlue® (resazurin) viability assays were performed on Molt-4 cells treated with different concentrations of three phytocannabinoids (CBD, CBDV and CF1) at different ratios, as shown in Table 2.
# In order to determine the effect of cannabinoids on the reduction of the survival rate of cancer cells, dose-dependent AlamarBlue® (resazurin) viability assays were then performed on Molt-4 cells treated with single cannabinoids or a combination of two cannabinoids at the same concentration as that of the three phytocannabinoids present in the whole extract, as shown in Table 3. Particularly, CF1 alone, or in combination with one additional cannabinoid was examined to determine its capability to induce apoptosis of cancer cells.
SMILES,"% of cell death (DBTRG-05MG cells; GBM DBTRG-05MG cells harboring a NOTCH 4 mutation, vs DMSO)","% of cell death, effect of adding the cannabinoid to CBD (DBTRG-05MG cells)","inducing cancer cells death (Molt-4 cells; Molt-4, CF1 alone as a single cannabinoid (1a, 0.62 ng/μl))","potency among the three cannabinoids (CBD, CBDV, CF1) (Molt-4 cells; Molt-4, Table 3 compositions)"
"C=C(C)[C@@H]1CCC(C)=C[C@H]1c1c(O)cc(CCCCC)cc1O [CBD, cannabidiol]",increased,,,
"CCCCCc1cc(O)c(C2C=C(C)CCC2C(C)(C)O)c(O)c1 [CF1, 1,3-benzenediol,2-[(1R,6R)-6-(1-hydroxy-1-methylethyl)-3-methyl-2cyclohexen-1-yl]-5-pentyl]",,improved the activity of CBD alone,showed efficacy,most potent
"C=C(C)[C@@H]1CCC(C)=C[C@H]1c1c(O)cc(CCC)cc1O [CBDV, cannabidivarin]",,improved the activity of CBD alone,,
